Data as given in patent US20040034082A1, “Utilization of pyrazoline derivatives in the preparation of a medicament for the prevention and/or treatment of proliferative cell diseases” (priority 2001, published 2004).
Converted amounts (≈) assume the structure as drawn. Read-outs that look alike come from different tables or passages of the source.

Assays:
TD20 = test: Induction of apoptosis in tumour cell line TD20; format: cell-based, human; details: 100 μM
Description: In order to obtain a deeper knowledge of the action mechanism of these compounds the capability to induce apoptosis in the tumour cell line TD20 of the compound of example 3 was studied (dose 100 μM).

MDAMB 453 = test: Cytotoxicity (XTT kit), mammary carcinoma cell line MDAMB 453; format: cell-based; details: for viability at 1 µM / viability at 20 µM / viability at 40 µM / viability at 60 µM / viability at 80 µM: MDA-MB-453, read-out: % Viability of mammary cancer cells ± SD; for IC50: read-out: IC-50 (cytotoxicity)
Description: The anti-tumoral activity of the compounds with general formula (I) was studied, determining their effect on a mammary carcinoma cell line (MDAMB 453). The cell line was cultured in a DMEM medium (Life Technologies) supplemented with 10% foetal bovine serum (Life Technologies) at 37° C. and 5% CO2.
(§1) Cytotoxicity tests were carried out using the XTT kit (Boehringer-Manheim) which measures the cell capability to metabolise a tetrazoyl salt to formazan.

[1] = test system: promoter of the human VEGF gene; test: Inhibition of the induction of VEGF: promoter-luciferase in transfected Caco-2 cells, TPA; format: cell-based; details: TPA 16 hours, read-out: Inhibition of the induction of VEGF IC-50
Source text: This activity has been studied determining the inhibition of the induction of the expression of VEGF. The increased expression of vascular-endothelial growth factor (VEGF) has been related to tumour progression and angiogenesis. VEGF is a proangiogenic factor, promoting mitogenesis, migration and an increased vascular permeability of in vitro endothelial cells. It has been shown recently that COX-2 can regulate the angiogenesis process induced by colon cancer cells, increasing the expression of proangiogenic factors by said cells. Inhibition of COX-2 may block this process, inhibiting the expression of some of these factors, such as VEGF.
(§2) In order to study the antiangiogenic activity of the products with general formula (I), the expression of the VEGF promoter was studied in a basal and stimulated situation using the Caco-2 human colon carcinoma cell line, temporally transfected with a vector containing the promoter f the human VEGF gene. Once the test conditions were established the capability of the product studied to inhibit the expression of the VEGF and TF genes was studied by measuring the luciferase activity of their promoters.
In the test 1.25×10^5 Caco-2 cells were used temporally transfected with t corresponding DNA in 500 μl of DEMEM-10% FCS medium in 24 dimple plates. […]

NC59 = test: Cytotoxicity (XTT kit), human colon carcinoma cell line NC59; format: cell-based; details: for IC50: read-out: IC-50 (cytotoxicity)
Description: (§3) The anti-tumoral activity of the compounds with general formula (I) was studied, determining their effect on cell lines of human colon carcinoma (TD 20 and NC 59). The two cell lines have the wild protein K-Ras. TD20 contains a mutation of the p53 suppressor gene, while NC59 has the p53 wild protein.
(§4) Both cell lines were cultured in a DMEM medium (Life Technologies) supplemented with 10% foetal bovine serum (Life Technologies) at 37° C. and 5% CO2.
as §1

TD 20 = test: Cytotoxicity (XTT kit), human colon carcinoma cell line TD20; format: cell-based; details: for IC50: read-out: IC-50 (cytotoxicity)
Description: as §3, §4, §1

TF = test: Inhibition of the induction of TF: promoter-luciferase in transfected Caco-2 cells, TPA; format: cell-based; details: Homo sapiens, TPA 16 hours, read-out: Inhibition of the induction of TF IC-50
Source text: In turn, VEGF also induces the expression of Tissue Factor (TF) in monocyte membranes, epithelial cells and endothelium. Although the main function of TF is to initiate the coagulation cascade, it can transduce intracellular signals participating in metastasis and angiogenesis associated to tumours. TF facilitates in vivo growth of the tumour, favouring angiogenesis.
as §2
In the test 1.25×10^5 Caco-2 cells were used temporally transfected with t corresponding DNA in 500 μl of DEMEM-10% FCS medium in 24 dimple plates. The cells were pre-treated for 1 hour with the compounds to be tested, and later stimulated with TPA for 16 hours. Afterwards cell extracts were obtained and their luciferase activity examined, determining the protein concentration.

NC59 cells = test: Signal transduction paths associated to apoptosis in NC59 cells; format: cell-based, human; details: 100 μM, 5 and 20 hours of exposure
Description: The signal transduction paths associated to the apoptosis process were then studied. After exposing NC59 cells to a 100 μM concentration of the compound of example 3, the expression levels were studied for p53, FAK and β-actine and the activation level of MAP kinases, JNK and PKB/Akt, after 5 and 20 hours of exposure.

TNF-α = test: Inhibition of TNF-α, zymosan air pouch model in mice (ELISA); format: in vivo; details: i.p.
Description: The study of the inhibitory activity of TNF-α has been performed according to the method described by P. Klemen et al. (Europ. J. Pharmacol. 1995 281: 69-74), consisting of determining the production of TNF-α in the localised area where the inflammation is acute, specifically using the zymosan inflated air pouch model in mice. The TNF-α present in the inflammatory exudates produced in said pouch as a result of the stimulation with zymosan was determined. The analytical determination of TNF-α was performed by ELISA.

[2] = test system: promoter of the gene COX-2; test: Inhibition of the induction of COX-2: stable transfectant JURKAT cells, COX-2 promoter-luciferase, TPA+ionomycine; format: cell-based; details: Homo sapiens
[3] = Homo sapiens, Colon carcinoma cell, read-out: % Viability of colorectal cancer cells ± SD
[4] = Homo sapiens, Colon carcinoma cell, 30 μM, read-out: % Viability of colorectal cancer cells ± SD
[5] = Homo sapiens, Colon carcinoma cell, 100 μM, read-out: % Viability of colorectal cancer cells ± SD
[6] = Homo sapiens, Colon carcinoma cell
[7] = Homo sapiens, Colon carcinoma cell, 80 μM, read-out: % Viability of colorectal cancer cells ± SD

SMILES: NS(=O)(=O)c1ccc(N2N=C(C(F)(F)F)CC2c2ccc(F)cc2F)cc1 (racemic) [Example 3, 1-(4-aminosulphonylphenyl)-5(2,4-difluorophenyl)-4,5-dihydro-3-trifluoromethyl-1H-pyrazol]
- apoptotic cells (TD20; after 24 h): 20%
- apoptotic cells (TD20; after 48 h): 80%
- viability at 1 µM (MDAMB 453; Homo sapiens, MDAMB 453): 94.8 ± 8.71%
- viability at 20 µM (MDAMB 453; Homo sapiens, MDAMB 453): 31.5 ± 9.12%
- viability at 40 µM (MDAMB 453; Homo sapiens, MDAMB 453): 12.8 ± 4.8%
- viability at 60 µM (MDAMB 453; Homo sapiens, MDAMB 453): 5.97 ± 5.06%
- viability at 80 µM (MDAMB 453; Homo sapiens, MDAMB 453): 2.84 ± 1.71%
- IC50 [1]: 20 µg/mL (≈ 49.3 µM)
- viability at 1 µM (NC59; [3]): 99.64 ± 0.51%
- viability at 20 µM (NC59; [3]): 76.5 ± 8.7%
- viability at 30 µM (NC59; [4]): 56.5 ± 0.25%
- viability at 40 µM (NC59; [3]): 16.7 ± 10.5%
- viability at 60 µM (NC59; [3]): 1.16 ± 0.83%
- viability at 100 µM (NC59; [5]): 0%
- IC50 (NC59; [6]): 30 µM
- IC50 (NC59): 29.9 µM
- viability at 1 µM (TD 20; [3]): 98.6 ± 2.83%
- viability at 20 µM (TD 20; [3]): 84.5 ± 3.05%
- viability at 30 µM (TD 20; [4]): 66.3 ± 5.84%
- viability at 40 µM (TD 20; [3]): 27.4 ± 4.12%
- viability at 60 µM (TD 20; [3]): 1.79 ± 2.09%
- viability at 100 µM (TD 20; [5]): 0.69 ± 0.01%
- IC50 (TD 20; [6]): 34 µM
- IC50 (TD 20): 33.9 µM
- IC50 (TF): 25 µg/mL (≈ 61.7 µM)
- signal transduction paths activated (p53, FAK, β-actine expression; MAP kinases, JNK, PKB/Akt activation) (NC59 cells): activation of signal transduction paths other than p53, JNK or p38

SMILES: CS(=O)(=O)c1ccc(C2CC(C(F)(F)F)=NN2c2ccc(F)cc2)cc1 (stereo not drawn) [Example 10]
- IC50 (MDAMB 453; Homo sapiens, MDA-MB-453, MDAMB 453): 18 µM
- viability at 1 µM (MDAMB 453; Homo sapiens, MDAMB 453): 97.5 ± 3.25%
- viability at 20 µM (MDAMB 453; Homo sapiens, MDAMB 453): 42.8 ± 9.31%
- viability at 40 µM (MDAMB 453; Homo sapiens, MDAMB 453): 33.3 ± 7.34%
- viability at 60 µM (MDAMB 453; Homo sapiens, MDAMB 453): 8.25 ± 6.82%
- viability at 80 µM (MDAMB 453; Homo sapiens, MDAMB 453): 5.8 ± 4.76%
- IC50 (MDAMB 453; MDAMB 453): 17.9 µM
- IC50 [1]: 25 µg/mL (≈ 64.7 µM)
- % Inhibition of TNF-α in inflammatory exudate stimulated by zymosan (TNF-α; 0.039 mg/kg): 12.6 ± 2.6%
- % Inhibition of TNF-α in inflammatory exudate stimulated by zymosan (TNF-α; 0.156 mg/kg): 15.7 ± 4.9%
- % Inhibition of TNF-α in inflammatory exudate stimulated by zymosan (TNF-α; 0.625 mg/kg): 46.8 ± 12.5%
- % Inhibition of TNF-α in inflammatory exudate stimulated by zymosan (TNF-α; 2.5 mg/kg): 58.8 ± 13.6%
- DE-50, inhibition of TNF-α (TNF-α): DE-50 = 1.20 mg/kg, i.p.
- viability at 1 µM (NC59; [3]): 92.1 ± 9.35%
- viability at 20 µM (NC59; [3]): 76.1 ± 7.17%
- viability at 40 µM (NC59; [3]): 15.8 ± 9.37%
- viability at 60 µM (NC59; [3]): 2.59 ± 1.54%
- viability at 80 µM (NC59; [7]): 1.66 ± 1.57%
- IC50 (NC59; [6]): 27 µM
- IC50 (NC59): 27.2 µM
- viability at 1 µM (TD 20; [3]): 95 ± 8.87%
- viability at 20 µM (TD 20; [3]): 90.2 ± 5.97%
- viability at 40 µM (TD 20; [3]): 43.1 ± 13.8%
- viability at 60 µM (TD 20; [3]): 5.42 ± 4.11%
- viability at 80 µM (TD 20; [7]): 3.22 ± 3.46%
- IC50 (TD 20; [6]): 38 µM
- IC50 (TD 20): 37.9 µM
- IC50 (TF): 22 µg/mL (≈ 56.9 µM)
- inhibition at 0.5 µg/mL ([2]; Clone C7, 0.5 μg/ml): 20%
- inhibition at 5 µg/mL ([2]; Clone C7, 5 μg/ml): 55%
- inhibition at 50 µg/mL ([2]; Clone C7, 50 μg/ml): 85%
- IC50 ([2]; Clone C7, read-out: IC-50 (μg/ml), inhibition of luciferase activity): 5.8 µg/mL (≈ 15 µM)
- inhibition at 0.5 µg/mL ([2]; Clone C9, 0.5 μg/ml): 40%
- inhibition at 5 µg/mL ([2]; Clone C9, 5 μg/ml): 75%
- inhibition at 50 µg/mL ([2]; Clone C9, 50 μg/ml): 85%
- IC50 ([2]; Clone C9, read-out: IC-50 (μg/ml), inhibition of luciferase activity): 0.9 µg/mL (≈ 2.33 µM)
- inhibition at 0.5 µg/mL ([2]; Clone F9, 0.5 μg/ml): 32%
- inhibition at 5 µg/mL ([2]; Clone F9, 5 μg/ml): 65%
- inhibition at 50 µg/mL ([2]; Clone F9, 50 μg/ml): 95%
- IC50 ([2]; Clone F9, read-out: IC-50 (μg/ml), inhibition of luciferase activity): 1.8 µg/mL (≈ 4.66 µM)
